Assay results taken from patent US7004171B2, “System for transvaginal drug delivery” (Hi-Gienic Intra Vaginal Technologies Ltd., priority 2002, dated 2006).

Settings: Sorensen buffer pH 7.4, 37° C., 24 hours agitation, excess drug
Source text: The release medium used for these experiments was the Sorensen-Walbum buffer, chosen here due to its lack of absorbance in the UV range, thus causing less interference with the analytical drug detection process. The buffer consisted of glycine (0.1 M) and NaCl (0.1 M), adjusted to pH 7.4 with NaOH (0.1M).

Q: For CC(C)Cc1ccc(C(C)C(=O)O)cc1 (stereo not shown) [Ibuprofen], which saturation concentration is on record?
A: 100 µg/mL
